# Data: US20180031580A1, “USE OF IGF-1 AS PROGNOSTIC FACTOR IN CALCIFICATION OF AORTIC VALVES” (THE ASAN FOUNDATION, priority 2015, published 2018)
# System: aortic valve vascular smooth muscle tissue
# Assay: ALP staining of aortic valve vascular smooth muscle tissue, osteocytogenesis level
# Assay type: in vivo, mice
# Details: wild-type or eNOS-deficient mice treated with IGF-1 alone; FIG. 2a
# Experimental: Wild-type mice or eNOS-deficient mice which are animal models with the aortic valve calcification were treated with insulin-like growth factor type 1 (IGF-1) alone or treated with dipeptidyl-peptidase 4 (DPP-4) and IGF-1 at the same time. Then, ALP staining was performed on the aortic valve vascular smooth muscle tissue, thereby comparing the […] level of tissue (FIG. 2a). Here, the aortic valve vascular smooth muscle tissue of the wild-type mice treated with nothing or the eNOS-deficient mice was used as a control group.
# FIG. 2a are an image and a graph showing verification of the effect of DPP-4 on an action of IGF-1 inhibiting osteocytogenesis in the aortic valve vascular smooth muscle tissue of the wild-type mice or the eNOS-deficient mice.
substance,measurement,value
IGF-1: polypeptide having a size of about 7.5 kDa present in a plasma of mammals; SEQ ID NO: 1,osteocytogenesis of aortic valve vascular smooth muscle tissue (ALP staining),tended to be alleviated
